According to paper PMC6168621 (Frontiers in Pharmacology, 2018):
Entries after “also recorded” stand apart in the source; their conditions may differ. Where two headings read alike, the source gives them in different places. Marks after values point to notes of the source that are not given here.

Legend:
[1] = target: T1, hCB1Rs (Homo sapiens, UniProt P21554); assay: biochemical; type: binding; details: for Ki: [^3H]CP-55,940 binding, CHO-hCB1 membranes
T1 construct: host or cells: CHO-K1 (CHO-hCB1)
T1 sequence (P21554 whole entry): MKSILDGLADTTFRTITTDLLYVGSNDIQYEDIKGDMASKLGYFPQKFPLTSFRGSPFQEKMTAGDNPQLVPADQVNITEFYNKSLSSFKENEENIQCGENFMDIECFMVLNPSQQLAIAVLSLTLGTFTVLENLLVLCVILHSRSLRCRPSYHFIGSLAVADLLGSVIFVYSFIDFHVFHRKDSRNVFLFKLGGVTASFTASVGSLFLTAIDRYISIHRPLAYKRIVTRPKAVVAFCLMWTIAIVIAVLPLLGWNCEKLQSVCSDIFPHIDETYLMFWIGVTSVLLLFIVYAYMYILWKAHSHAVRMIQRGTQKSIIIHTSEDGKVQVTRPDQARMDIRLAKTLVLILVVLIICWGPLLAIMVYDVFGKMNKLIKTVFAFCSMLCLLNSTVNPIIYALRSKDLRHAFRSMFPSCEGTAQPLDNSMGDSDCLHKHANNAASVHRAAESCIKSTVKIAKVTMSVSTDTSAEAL

[2] = target: T1, hCB1Rs; assay: biochemical; details: CHO-hCB1 membranes; for Emax: read-out: EMAX, [^35S]GTPγS binding (maximal G-protein activation)
[3] = test system: human liver microsomes (HLMs); assay: Glucuronidation of AB-PINACA and JWH-018 metabolites in HLMs; type: in vitro ADME; details: 90 min; for Glucuronide formation (UPLC peak): 50 μM substrate, HLMs with UDPGA, 37°C
Procedure: A typical incubation mixture (30 μl of total volume) contained 100 mM Tris-HCl (pH 7.4), 5 mM MgCl2, 3 mM UDPGA, 80 μg/ml alamethicin, 50 μg HLMs, 5 mM saccharolactone, and 50 μM 4OH- or 5OH-AB-PINACA. […] After incubation at 37°C for 90 min, reactions were terminated by the addition of 30 μl cold ethanol. Following removal of the protein by centrifugation at 12,000 × g for 10 min, a 5-μl portion of the sample was subjected to UPLC. All incubations were performed in triplicate.
Parent compounds and glucuronidated metabolites were identified by the ACQUITY UPLC System with a UV detector (Milford, MA, United States). […] The column was re-equilibrated at initial conditions for 2.5 min between runs. The elution was monitored at 300 nm. The retention times of 4OH-AB-PINACA, 5OH-AB-PINACA, 4OH-AB-PINACA glucuronide, and JWH-018-M2 were 3.989, 3.994, 3.646, and 5.391 min.
FIGURE 4 Glucuronidation of 4OH- and 5OH-AB-PINACA in human liver microsomes (HLMs). 4OH-AB-PINACA (A) and 5OH-AB-PINACA (B) were incubated for 90 min with HLMs in the presence or absence of UDPGA. The terminated reaction mixtures were subjected to the UPLC analysis and the eluent was monitor with a UV detector at 300 nm and chromatograms presented. (C) The peak area of the glucuronide was estimated from the triplicate determinations. The data are presented as mean value ± SD. ND, not detected. (D) Comparison of glucuronidation of JWH-018-M2 and 4OH-AB-PINACA with HLMs. JWH-018-M2 and 4OH-AB-PINACA (5 μM) were incubated for 90 min with HLMs in the presence or absence of UDPGA. The terminated reaction mixtures were subjected to the UPLC analysis and the eluent was monitor with a UV detector at 300 nm. The remaining amount of the substrates was quantified by using standard curves of JWH-018-M2 and 4OH-AB-PINACA. The data was shown as mean value ± SD. ^∗P < 0.001. TEXT PRINTED IN THE PICTURE: (C) 5OH-AB-PINACA: Peak area (μV*sec): ND

[4] = target: T1, hCB1Rs; assay: cell-based; type: cell-based; details: intact CHO-hCB1 cells, 10 μM forskolin, 15 min
[5] = LC-MS/MS analysis of forensic clinical samples (urine, serum); type: in vivo; details: human forensic clinical sample; for Concentration in serum: Patient 002, serum (text: blood); for Concentration in urine: Patient 002, urine
Description: For human studies, ToxBox® analytical test kits were provided by PinPoint Testing, LLC (Little Rock, AR, United States) to streamline sample preparation and testing procedures for SCBs, confounding drugs of abuse and other non-specified NPSs. ToxBox® contained NIST-traceable, certified reference material for all standards and isotopically-labeled internal standards along with ISOLUTE® SLE+ 96-well plates manufactured by Biotage (Charlotte, NC, United States). This newly developed kit identifies not only novel SCBs and associated metabolites, but also over 200 drugs and other NPSs that often confound such analytical tests. Optima-grade formic acid, acetonitrile, and methanol were purchased from Fisher Scientific (Fair Lawn, NJ, United States). Deionized water was purified to 18.2 MΩ⋅cm resistivity using the equivalent of a Millipore laboratory water purification system. All other chemicals and supplies were provided by Cerilliant (Round Rock, TX, United States), Cayman Chemical Company (Ann Arbor, Michigan, United States), Lipomed (Cambridge, MA), Biotage (Charlotte, NC, United States) or HemoStat Laboratories (Dixon, CA, United States). Blank defibrinated sheep blood or blank human blood void of drug contamination was used for all studies.
Supported liquid extraction (SLE) procedures were optimized for 96-wellplate processing on a PerkinElmer Zephyr G3 SPE Workstation (Waltham, MA, United States). Sample extracts were analyzed using an Agilent 1260 quaternary liquid chromatography system (Santa Clara, CA, United States) coupled to an Agilent 6420 tandem mass spectrometer (LC-MS/MS). Instrument control and data acquisition relied on MassHunter LC/MS Data Acquisition (VER B.08.00). Data analysis was performed using MassHunter Quantitative Analysis (VER B.07.01 SP2).
Use of this material was approved by the Institutional Review Board of the University of Arkansas for Medical Sciences (Little Rock, AR, United States) (IRB #217584).
All blood calibration standards, QC material, and unknown samples were processed identically by mixing 0.25 ml of blank blood or unknown specimen in appropriate wells at 900 rpm for 15 min, pretreating with 0.25 mL of 0.5 M ammonium hydroxide, and then mixing for another 15 min at 900 rpm. Samples were then loaded, under gentle vacuum or positive pressure, onto a 400 mg ISOLUTE® SLE+ 96-wellplate. Samples were allowed to equilibrate for 5 min before extracting under gravity with two fractions of 900 μL of ethyl acetate. All sample extracts were evaporated to dryness under a gentle flow of nitrogen and reconstituted in 100% methanol (100 μl).
Analytical procedures used 5 μl injections on a 2.6 μm Phenomenex Kinetex Phenyl Hexyl (50 × 4.6 mm) LC column heated to 35°C. Analytes were resolved at 0.5 mL/min using mobile phase A (10 mM ammonium formate in ultrapure 18.2 MΩ⋅cm water) and mobile phase B (0.1% formic acid in methanol). Analytes are resolved using a gradient starting at 95% aqueous (Mobile Phase A) and ramping to 0% aqueous over 4 min, and holding constant for 1 min. The gradient returned to initial conditions over 0.1 min and equilibrated for an additional 1.9 min. The total run time including column equilibration period between injections was 7.0 min. Specific mass spectrometer and analyte parameters are provided in Supplementary Tables S2, S3.

[6] = test system: CD1 mice; assay: Cannabinoid-elicited hypothermia (rectal temperature); type: in vivo; details: for Lowest rectal temperature, hypothermic effect vs vehicle / Lowest rectal temperature, drug alone vs rimonabant pretreatment: P < 0.05; for Lowest rectal temperature, drug alone vs rimonabant pretreatment: rimonabant 10.0 mg/kg 60 min before
Procedure: For in vivo studies, rimonabant was synthesized in the laboratory of Dr. Thomas E. Prisinzano at the University of Kansas School of Pharmacy (Lawrence, KS, United States), and provided to us as a generous gift. AB-PINACA, and its 4OH metabolite were obtained from Cayman Chemical Company (Ann Arbor, MI, United States). All cannabinoids were dissolved in a vehicle consisting of ethanol, emulphor and saline at a ratio of 1:1:18. Injections were administered via the intraperitoneal (IP) route at a constant volume of […]. Rimonabant was administered at a dose of 10 mg/kg, 60 min before injection of AB-PINACA or its 4OH metabolite.
Adult male CD1 mice (Charles River Laboratory, Wilmington, MA, United States) were housed three subjects per cage (15.2 cm × 25.4 cm × 12.7 cm) in a temperature-controlled room in a vivarium accredited by the Association for Assessment and Accreditation of Laboratory Animal Care, and given ad libitum food (Laboratory Rodent Diet no. 5001; PMI Feeds, St. Louis, MO, United States) and water. The vivarium was maintained at 22°C ± 2°C and 45–50% humidity, with lights set to a 12-h light/dark cycle (lights on at 6:00 AM, CST). […] All procedures were carried out in accordance with the Guide for Care and Use of Laboratory Animals as adopted and promulgated by the National Institutes of Health (NIH). The experimental protocol has been approved by the Institutional Animal Care and Use Committee (IACUC) at the University of Arkansas for Medical Sciences (UAMS).
Mice were habituated to handling and weighing prior to initiation of experimental procedures. A digital thermometer (model BAT-12, PhysiTemp, Clifton, NJ, United States) equipped with a Ret-3 mouse probe (model 50314, Stoelting Co., Dale, IL, United States) was lubricated and inserted approximately 2 cm into the rectum. Stable temperatures were obtained within ∼6 s. Rectal temperature data were sampled immediately before injection, and at 10, 30, 60, 120, 240, and 360 min after injection.
Curve-fitting was conducted utilizing GraphPad Prism® v6.0b (GraphPad Software, Inc.; San Diego, CA, United States). Non-linear regression for one-site competition was used to determine the IC50 for competition receptor binding. The Cheng-Prusoff equation ([Cheng and Prusoff, 1973]) was employed to convert the experimental IC50 values obtained from competition receptor binding experiments to Ki values (a quantitative measure of receptor affinity). Curve fitting of concentration-effect curves via non-linear regression was also employed to determine the […] or IC50 (measures of potency) and Emax or Imax (measures of efficacy) for the [^35S]GTPγS and adenylyl cyclase experiments, respectively. All dissociation constants and measurements of potency were converted to pKi, pEC50, or pIC50 values by taking the negative log of each value so that parametric tests could be used for statistical comparisons. A one-way ANOVA, followed by Tukey’s Multiple Comparison post hoc test, was used to determine statistical significance (P < 0.05). For animal studies, temperature data are shown as mean values (±SEM) for groups of subjects at each drug dose and time point. For statistical analyses, only the highest dose of AB-PINACA or its 4OH- metabolite (with and without rimonabant pretreatment) were considered. The lowest temperatures recorded for each subject within each group (regardless of when after drug administration it occurred) were compared to vehicle data using a one-way ANOVA and Tukey’s HSD post hoc test. Significance was judged at P < 0.05.

[7] = Ki, 0.2 nM [^3H]CP-55,940, Cheng-Prusoff
[8] = pKi, 0.2 nM [^3H]CP-55,940, mean ± SEM
[9] = mean ± SEM, read-out: pEC50, [^35S]GTPγS binding (converted)
[10] = read-out: EC50, [^35S]GTPγS binding
[11] = read-out: IC50, cAMP accumulation (adenylyl cyclase inhibition)
[12] = read-out: pIC50, cAMP accumulation (converted)

CC(C)C(NC(=O)c1nn(CCCCCO)c2ccccc12)C(N)=O (stereo not drawn) [5OH-AB-PINACA]
Ki [1, 7]: 452 nM | Ki [1, 8]: 447 nM | Emax ([2]; mean ± SEM): 100 ± 16.8% | EC50 [2, 9]: 2820 nM | EC50 [2, 10]: 2740 nM | Glucuronide formation (UPLC peak) [3]: no such peak is observed; also recorded: glucuronidation is not involved in the clearance

CCCCCn1nc(C(=O)N[C@H](C(N)=O)C(C)C)c2ccccc21 [AB-PINACA, (S)-N1(1-amino-3-methyl-1-oxobutan-2-yl)-1-pentyl-1H-indazole-3-carbox-amide]
IMAX, cAMP accumulation (maximal adenylyl cyclase inhibition) [4]: 72.0 ± 2.1^b % | IC50 [4, 11]: 3.9 nM | IC50 [4, 12]: 2.24 nM | Ki [1, 7]: 4 nM | Ki [1, 8]: 1.78 nM | Emax ([2]; mean ± SEM): 71.9 ± 5.8% | EC50 [2, 9]: 8.71 nM | EC50 [2, 10]: 12.8 nM | Concentration in serum [5]: 1.2 ng/mL | Concentration in urine [5]: 0.9 ng/mL | Lowest rectal temperature, hypothermic effect vs vehicle ([6]; 10.0 mg/kg i.p.): significantly different | Lowest rectal temperature, drug alone vs rimonabant pretreatment ([6]; 10.0 mg/kg i.p.): significantly different | Effect on rectal temperature ([6]; 3.0 and 10.0 mg/kg, i.p.): dose- and time-dependent hypothermic effects | Effect on rectal temperature ([6]; lowest tested dose (1.0 mg/kg), i.p.): prevents the typical injection-elicited increase in rectal temperature

Cc1c(C(=O)NN2CCCCC2)nn(-c2ccc(Cl)cc2Cl)c1-c1ccc(Cl)cc1 [Rimonabant, reference compound]
Effect on rectal temperature ([6]; 10 mg/kg, alone): does not alter rectal temperature

CC(C)[C@H](NC(=O)c1nn(Cc2ccc(F)cc2)c2ccccc12)C(N)=O [AB-FUBINACA]
Concentration in urine [5]: 1.1 ng/mL

CC(C)(C)[C@H](NC(=O)c1nn(CC2CCCCC2)c2ccccc12)C(N)=O
Concentration in serum [5]: 11.3 ng/mL

CC(O)CCCn1nc(C(=O)NC(C(N)=O)C(C)C)c2ccccc21 (stereo not drawn) [4OH-AB-PINACA]
IMAX, cAMP accumulation (maximal adenylyl cyclase inhibition) [4]: 87.0 ± 2.9^a % | IC50 [4, 11]: 141 nM | IC50 [4, 12]: 129 nM | hCB1R affinity relative to the parent compound AB-PINACA (fold less) ([1]; 159 nM vs 4 nM): approximately 40 fold | Ki [1, 7]: 159 nM | Ki [1, 8]: 151 nM | Emax ([2]; mean ± SEM): 92.6 ± 13.4% | EC50 [2, 9]: 813 nM | EC50 [2, 10]: 952 nM | Remaining amount of substrate in the presence vs absence of UDPGA ([3]; 5 μM substrate, HLMs, Figure 4D): such disappearance of substrate is not observed | Glucuronide formation (UPLC peak) [3]: unique peak is observed; also recorded: slightly glucuronidated | Lowest rectal temperature, hypothermic effect vs vehicle ([6]; 100.0 mg/kg i.p.): significantly different | Lowest rectal temperature, drug alone vs rimonabant pretreatment ([6]; 100.0 mg/kg i.p.): significantly different | Dose required for a similar level of hypothermia relative to AB-PINACA ([6]; 100 mg/kg vs 10 mg/kg): ~10 fold | Effect on rectal temperature ([6]; 30.0 and 100.0 mg/kg, i.p.): dose- and time-dependent hypothermic effects

C=C(C)C(C)(C)CC(=O)c1cn(CCCCC(=O)O)c2ccccc12 [UR-144-pentanoic acid degradant]
Concentration in serum [5]: 5.4 ng/mL
